Measured values: paper PMC6943670, “Investigating the Binding Mode of Reversible LSD1 Inhibitors Derived from Stilbene Derivatives by 3D-QSAR, Molecular Docking, and Molecular Dynamics Simulation” (Molecules, 2019)
Like-named read-outs stand apart in the source and are kept apart here.

Legend:
LSD1 [1] = target: T1, LSD1 (Homo sapiens, UniProt O60341); design: method as in PMID 30448189; conditions: cited from earlier work
LSD1 [2] = target: T1, LSD1; experiment: LSD1 enzyme inhibition assay (H3K4me2 substrate, Amplex Red/HRP fluorescence)
LSD1 [3] = target: T1, LSD1; conditions: cited from earlier work

Row | SMILES | melting point [°C] | IC50 (LSD1 [2]) [nM] | also measured
1 | COc1cc(Br)c(/C=C/c2ccc(C(=O)NO)cc2)cc1OC | 163 to 164 | – | –
2 | COc1cc(F)c(/C=C/c2ccc(C(=O)NO)cc2)cc1OC | 159 to 160 | – | –
3 | N/C(=N\O)c1cccc(/C=C/c2ccnc(-c3cc(F)ccc3O)c2)c1 [Compound 22] | – | – | binding site by enzyme kinetics studies (LSD1 [1]): FAD region
4 | COc1ccc(/C=C/c2ccc(/C=C/C(=O)NO)cc2)cc1OC [Compound 24] | 205 to 206 | 4160 | –
5 | COc1cc(F)c(/C=C/c2ccc(/C=C/C(=O)NO)cc2)cc1OC [Compound 25] | 185 to 186 | 3320 | –
6 | COc1cc(/C=C/c2ccc(/C=C/C(=O)NO)cc2)cc(OC)c1 [Compound 26] | 149 to 150 | 5180 | –
7 | COc1cc(Br)c(/C=C/c2ccc(/C=C/C(=O)NO)cc2)cc1OC [Compound 27] | 120 to 121 | 3980 | –
8 | COc1cc(/C=C/c2ccc(C(=O)NO)cc2)cc(OC)c1 [Compound 29] | – | 692 | –
9 | COc1ccc(/C=C/c2ccc(C(=O)NO)cc2)cc1OC [Compound 30] | 197 to 198 | 816 | –
10 | O=C(NO)c1ccc(/C=C/c2cc(F)cc(F)c2)cc1 [Compound 31] | 266 to 267 | 1300 | –
11 | O=C(NO)c1ccc(/C=C/c2ccc3c(c2)CCO3)cc1 [Compound 33] | 193 to 194 | 1930 | –
12 | O=C(O)c1ccc(CN2CCC(CN[C@@H]3C[C@H]3c3ccccc3)CC2)cc1 [GSK2879552] | – | – | IC50 (LSD1 [3]; inhibition of LSD1): 20 nM
13 | Cc1ccc(-c2ncc(OC[C@@H]3CCNC3)cc2-c2ccc(C#N)cc2)cc1 [GSK-354] | – | – | IC50 (LSD1 [3]; reversible LSD1 inhibitor): 90 nM
14 | C#CCN(C)Cc1ccccc1 [pargyline] | – | – | inhibitory effect on LSD1 (LSD1 [3]; MAO inhibitors bonding covalently with FAD): no significant inhibitory effect; selectivity (LSD1 [3]; MAO inhibitors): poor selectivity
